Measurements published in ChEMBL document CHEMBL5143670, “Discovery and preclinical profile of LX-039, a novel indole-based oral selective estrogen receptor degrader (SERD)” (Bioorg Med Chem Lett, 2022).

Key:
MCF7 [1] = test: Antitumor activity against tamoxifen-resistant human MCF7 cells xenografted in mouse assessed as tumor growth inhibition at 3 mg, po dosed once daily for 21 days relative to control; assay type: functional; conditions: time 21 day
[2] = Induction of estrogen receptor degradation in human MCF7 cells incubated for 4 hrs by in-cell Western assay; assay type: cell-based; conditions: MCF7, 4 h
MCF7 [3] = test: Antiproliferative activity against human MCF7 cells measured after 5 days by CellTiter-GLo luminescent assay; assay type: functional, cell-based; conditions: MCF7, 120 h
[4] = Permeability of the compound from apical to basolateral side in human Caco-2 cells; assay type: ADME, cell-based; conditions: read-out: permeability
[5] = Protein binding in human plasma assessed as free fraction; assay type: ADME, cell-free
[6] = Toxicity in mouse xenografted with human MCF7 cells assessed as body weight change at 20 mg/kg, po administered once daily for 21 days; assay type: organism-based; conditions: in vivo, 504 h, time 21 day
MCF7 [7] = test: Antitumor activity against human MCF7 cells xenografted in mouse assessed as tumor growth inhibition at 20 mg/kg, po administered once daily for 21 days; assay type: functional; conditions: MCF7, 504 h, time 21 day, read-out: TGI
[8] = Binding affinity to estrogen receptor (unknown origin); design: species or system Homo sapiens
[9] = Volume of distribution in iv dosed CD-1 mouse; assay type: ADME, organism-based; conditions: in vivo
[10] = Cmax in CD-1 mouse at 2.5 mg/kg, po; assay type: ADME, organism-based; design: dose 2.5 mg/kg, route po; conditions: in vivo
[11] = AUC (0 to 24 hrs) in CD-1 mouse at 2.5 mg/kg, po; assay type: ADME, organism-based; design: time < 24 hr, dose 2.5 mg/kg, route po; conditions: in vivo; for AUC(0-t) at 24 h: CD-1, mouse
[12] = Oral bioavailability in CD-1 mouse at 2.5 mg/kg; assay type: ADME, organism-based; conditions: in vivo; for bioavailability: CD-1, mouse
[13] = Permeability of the compound from basolateral to apical side in human Caco-2 cells; assay type: ADME, cell-based; conditions: read-out: permeability
[14] = Efflux ratio of apparent permeability from basolateral to apical side over apical to basolateral side in human Caco-2 cells; assay type: ADME, cell-based
[15] = Metabolic stability in mouse hepatocyte assessed as intrinsic clearance measured per 10^6 cells; assay type: ADME, cell-based; conditions: hepatocytes, read-out: CLH
[16] = Metabolic stability in rat hepatocytes assessed as intrinsic clearance measured per million cells; assay type: ADME, cell-based, Hepatocyte; conditions: read-out: CLH
[17] = Metabolic stability in dog hepatocytes assessed as intrinsic clearance measured per million cells; assay type: ADME, cell-based, Canis lupus familiaris, Hepatocyte; conditions: read-out: CLH
[18] = Metabolic stability in human hepatocytes assessed as intrinsic clearance measured per million cells; assay type: ADME, cell-based, Hepatocyte; conditions: read-out: CLH
Cytochrome P450 3A4 = Cytochrome P450 3A4 (Homo sapiens, UniProt P08684); test: Inhibition of CYP3A4 (unknown origin) using testosterone as substrate; assay type: ADME
Cytochrome P450 2C9 = Cytochrome P450 2C9 (Homo sapiens, UniProt P11712); test: Inhibition of CYP2C9 (unknown origin); assay type: ADME
Cytochrome P450 2C19 = Cytochrome P450 2C19 (Homo sapiens, UniProt P33261); test: Inhibition of CYP2C19 (unknown origin); assay type: ADME
Cytochrome P450 2D6 = Cytochrome P450 2D6 (Homo sapiens, UniProt P10635); test: Inhibition of CYP2D6 (unknown origin); assay type: ADME
Cytochrome P450 1A2 = biological target: T1, Cytochrome P450 1A2 (Homo sapiens, UniProt P05177); test: Inhibition of CYP1A2 (unknown origin); assay type: ADME
T1 sequence (P05177 whole entry): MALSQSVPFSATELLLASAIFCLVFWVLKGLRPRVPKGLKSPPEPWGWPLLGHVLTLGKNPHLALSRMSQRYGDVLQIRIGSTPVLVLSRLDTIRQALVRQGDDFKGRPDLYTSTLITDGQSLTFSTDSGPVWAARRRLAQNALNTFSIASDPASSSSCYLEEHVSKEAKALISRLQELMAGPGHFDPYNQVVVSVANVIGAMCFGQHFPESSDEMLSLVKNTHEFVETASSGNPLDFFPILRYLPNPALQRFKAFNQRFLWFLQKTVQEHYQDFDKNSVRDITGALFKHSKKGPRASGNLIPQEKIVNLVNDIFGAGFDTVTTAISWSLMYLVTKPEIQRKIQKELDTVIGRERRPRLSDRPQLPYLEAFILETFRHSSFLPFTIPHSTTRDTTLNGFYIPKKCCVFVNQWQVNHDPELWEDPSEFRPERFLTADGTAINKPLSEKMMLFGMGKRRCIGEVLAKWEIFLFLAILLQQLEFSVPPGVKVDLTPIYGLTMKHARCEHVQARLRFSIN

MCF7 [19] = test: Antitumor activity against human MCF7 cells xenografted in mouse assessed as tumor growth inhibition when administered orally once daily for 21 days; assay type: functional, cell-based; conditions: dose 6.5-60 mg/kg, route po, time 21.0 day, DDE = dose-dependent effect
MCF7 [20] = test: Antitumor activity against human MCF7 cells xenografted in mouse assessed as tumor shrinkage by measuring tumor growth inhibition at 60 mg/kg, po administered once daily for 21 days; assay type: functional; conditions: MCF7, 504 h, time 21 day, read-out: TGI
[21] = Toxicity in mouse xenografted with human MCF7 cells assessed as change in body weight at 6.5 to 60 mg/kg, po administered once daily for 21 days; assay type: organism-based; conditions: in vivo, 504 h, dose 6.5-60 mg/kg, time 21 day
MCF7 [22] = test: Antitumor activity against tamoxifen-resistant human MCF7 cells xenografted in mouse assessed as tumor growth inhibition at 200 mg/kg, po dosed once daily for 21 days relative to control; assay type: functional; conditions: MCF7, 504 h, time 21 day, read-out: TGI
[23] = Volume of distribution in iv dosed Sprague-Dawley rat; assay type: ADME, organism-based; conditions: in vivo
[24] = Clearance in iv dosed Sprague-Dawley rat; assay type: ADME, organism-based; conditions: in vivo
[25] = C0 in Sprague-Dawley rat at 1 mg/kg, iv; assay type: ADME, organism-based; conditions: in vivo
[26] = AUC (0 to 24 hrs) in Sprague-Dawley rat at 1 mg/kg, iv; assay type: ADME, organism-based; design: time < 24 hr, dose 1 mg/kg, route iv; conditions: in vivo
[27] = Cmax in Sprague-Dawley rat at 1 mg/kg, po; assay type: ADME, organism-based; design: dose 1 mg/kg, route po; conditions: in vivo
[28] = AUC (0 to 24 hrs) in Sprague-Dawley rat at 1 mg/kg, po; assay type: ADME, organism-based; design: time < 24 hr, dose 1 mg/kg, route po; conditions: in vivo
[29] = Oral bioavailability in Sprague-Dawley rat at 1 mg/kg; assay type: ADME, organism-based; conditions: in vivo
[30] = Volume of distribution in iv dosed Beagle dog; assay type: ADME, organism-based, Canis lupus familiaris; conditions: in vivo
[31] = Clearance in iv dosed Beagle dog; assay type: ADME, organism-based, Canis lupus familiaris; conditions: in vivo
[32] = C0 in Beagle dog at 1 mg/kg, iv; assay type: ADME, organism-based, Canis lupus familiaris; conditions: in vivo
[33] = AUC (0 to 24 hrs) in Beagle dog at 1 mg/kg, iv; assay type: ADME, organism-based, Canis lupus familiaris; design: time < 24 hr, dose 1 mg/kg, route iv; conditions: in vivo
[34] = Cmax in Beagle dog at 1 mg/kg, po; assay type: ADME, organism-based, Canis lupus familiaris; design: dose 1 mg/kg, route po; conditions: in vivo
[35] = AUC (0 to 24 hrs) in Beagle dog at 1 mg/kg, po; assay type: ADME, organism-based, Canis lupus familiaris; design: time < 24 hr, dose 1 mg/kg, route po; conditions: in vivo
[36] = Oral bioavailability in Beagle dog at 1 mg/kg; assay type: ADME, organism-based, Canis lupus familiaris; conditions: in vivo
[37] = Toxicity in Sprague-Dawley rat assessed as adverse effects at 500 mg/kg, po; assay type: organism-based; conditions: in vivo
[38] = Toxicity in Beagle dog assessed as adverse effects at 1000 mg/kg, po; assay type: organism-based, Canis lupus familiaris; conditions: in vivo
[39] = Genotoxicity in Salmonella typhimurium by Ames test; assay type: toxicity; conditions: salmonella enterica subsp. enterica serovar typhimurium
[40] = In vivo antagonist activity at estrogen receptor in immature CD-IGS rat assessed as inhibition of estradiol-induced uterine growth by measuring uterine wet weight pretreated with compound for 15 mins followed by estradiol addition administered orally for three days and measured on day 4 relative to control; assay type: functional; conditions: route po; time 4 day
[41] = Clearance in iv dosed CD-1 mouse; assay type: ADME, organism-based; conditions: in vivo

Cytochrome P450 2C19, sequence (P33261 whole entry): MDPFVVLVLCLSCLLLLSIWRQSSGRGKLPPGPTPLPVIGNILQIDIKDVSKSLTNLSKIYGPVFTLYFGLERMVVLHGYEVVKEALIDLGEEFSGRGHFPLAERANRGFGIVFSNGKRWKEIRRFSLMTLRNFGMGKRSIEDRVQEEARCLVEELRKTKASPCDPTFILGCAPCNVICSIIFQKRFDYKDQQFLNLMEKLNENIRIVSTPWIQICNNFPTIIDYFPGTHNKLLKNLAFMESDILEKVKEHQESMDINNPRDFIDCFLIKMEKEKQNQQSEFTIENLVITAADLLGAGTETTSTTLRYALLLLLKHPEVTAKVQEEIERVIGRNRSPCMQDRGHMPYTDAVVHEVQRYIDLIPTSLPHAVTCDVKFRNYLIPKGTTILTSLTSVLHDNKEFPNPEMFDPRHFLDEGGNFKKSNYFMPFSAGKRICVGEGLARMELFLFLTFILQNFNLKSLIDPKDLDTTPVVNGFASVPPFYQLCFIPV
Cytochrome P450 2C9, sequence (P11712 whole entry): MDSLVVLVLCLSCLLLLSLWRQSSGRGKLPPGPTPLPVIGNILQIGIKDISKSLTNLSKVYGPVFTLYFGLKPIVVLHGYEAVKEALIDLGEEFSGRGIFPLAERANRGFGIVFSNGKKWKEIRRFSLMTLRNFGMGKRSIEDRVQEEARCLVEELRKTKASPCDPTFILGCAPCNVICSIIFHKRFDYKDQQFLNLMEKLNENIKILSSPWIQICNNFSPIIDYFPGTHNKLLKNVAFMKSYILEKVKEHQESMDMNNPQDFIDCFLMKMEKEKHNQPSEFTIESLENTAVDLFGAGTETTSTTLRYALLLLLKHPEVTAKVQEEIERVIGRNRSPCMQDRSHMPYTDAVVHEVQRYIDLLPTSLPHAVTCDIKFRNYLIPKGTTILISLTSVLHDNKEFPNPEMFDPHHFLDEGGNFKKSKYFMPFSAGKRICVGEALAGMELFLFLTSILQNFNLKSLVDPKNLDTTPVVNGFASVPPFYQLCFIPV
Cytochrome P450 3A4, sequence (P08684 whole entry): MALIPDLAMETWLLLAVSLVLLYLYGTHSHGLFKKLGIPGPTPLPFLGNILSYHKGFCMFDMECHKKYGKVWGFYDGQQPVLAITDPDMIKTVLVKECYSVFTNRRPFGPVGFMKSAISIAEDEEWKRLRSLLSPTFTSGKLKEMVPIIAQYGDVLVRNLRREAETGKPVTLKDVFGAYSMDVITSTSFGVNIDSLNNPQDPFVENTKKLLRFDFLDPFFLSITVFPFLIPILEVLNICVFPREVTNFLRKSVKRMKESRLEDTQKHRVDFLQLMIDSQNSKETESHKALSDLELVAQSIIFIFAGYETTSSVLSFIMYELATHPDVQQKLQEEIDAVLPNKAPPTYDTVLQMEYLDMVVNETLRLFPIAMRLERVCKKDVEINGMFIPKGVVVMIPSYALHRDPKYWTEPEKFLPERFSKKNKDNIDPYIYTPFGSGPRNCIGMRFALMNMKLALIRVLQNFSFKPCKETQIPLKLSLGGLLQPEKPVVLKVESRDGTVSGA
Cytochrome P450 2D6, sequence (P10635 whole entry): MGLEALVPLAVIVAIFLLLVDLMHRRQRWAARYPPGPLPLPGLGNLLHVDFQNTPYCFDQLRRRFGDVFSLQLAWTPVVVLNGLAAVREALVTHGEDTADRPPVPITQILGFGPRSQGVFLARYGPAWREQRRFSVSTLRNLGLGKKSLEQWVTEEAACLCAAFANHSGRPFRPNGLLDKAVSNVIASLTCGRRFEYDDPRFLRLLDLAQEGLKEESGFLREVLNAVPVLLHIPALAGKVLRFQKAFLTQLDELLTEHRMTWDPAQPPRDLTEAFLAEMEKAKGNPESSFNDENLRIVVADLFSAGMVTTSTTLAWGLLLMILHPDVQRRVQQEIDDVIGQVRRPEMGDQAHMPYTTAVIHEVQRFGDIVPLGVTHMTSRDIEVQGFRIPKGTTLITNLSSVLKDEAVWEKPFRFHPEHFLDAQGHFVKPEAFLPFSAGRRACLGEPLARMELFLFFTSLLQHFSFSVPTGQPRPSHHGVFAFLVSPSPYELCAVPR

With `C[C@]12CC[C@@H]3c4ccc(O)cc4C[C@@H](CCCCCCCCC[S+]([O-])CCCC(F)(F)C(F)(F)F)[C@H]3[C@@H]1CC[C@@H]2O` (stereo not given in full) [FULVESTRANT] the TGI (MCF7 [1]) was 66%.

With `CC/C(=C(/c1ccc(/C=C/C(=O)O)cc1)c1[nH]c2ccccc2c1C)c1ccc(F)cc1Cl` the EC50 [2] was 1.26 nM and the IC50 (MCF7 [3]) was 4.78 nM.

With `CC/C(=C(/c1ccc(/C=C/C(=O)O)cc1)c1[nH]c2ccccc2c1Cl)c1ccc(F)cc1Cl` the Papp A→B [4] was 0.94 ×10⁻⁶ cm/s, the fraction unbound [5] was 0.051 and the Activity [6] was “Non-Toxic”. For the same molecule, the inhibition in vivo at 20 mg/kg (MCF7 [7]) was 104%, the IC50 [8] was 0.99 nM and the EC50 [2] was 2.29 nM. It also gave an IC50 (MCF7 [3]) of 3.76 nM, a Vd [9] of 0.5 L/kg and a Cmax [10] of 1870 nM. The AUC ([11]; mouse, 24 h) was 15.329 µM·h, the F ([12]; mouse, po, 2.5 mg/kg) was 60.1% and the Papp B→A [13] was 1.25 ×10⁻⁶ cm/s. For the same molecule, the efflux ratio [14] was 1.32, the hepatocyte CLint [15] was 9.8 µL/min/1e6 cells and the hepatocyte CLint [16] was 11.1 µL/min/1e6 cells. For the same molecule, the hepatocyte CLint [17] was 8.6 µL/min/1e6 cells, the hepatocyte CLint [18] was 15.2 µL/min/1e6 cells and the IC50 (Cytochrome P450 3A4) was 7 µM. For the same molecule, the IC50 (Cytochrome P450 2C9) was 5.1 µM, the IC50 (Cytochrome P450 2C19) was 10.1 µM and the IC50 (Cytochrome P450 2D6) was 14.3 µM. For the same molecule, the IC50 (Cytochrome P450 1A2) was 7.7 µM, the inhibition (MCF7 [19]) was “Dde” and the inhibition in vivo at 60 mg/kg (MCF7 [20]) was 113%. The Activity [21] was “Non-Toxic”, the inhibition in vivo at 200 mg/kg (MCF7 [22]) was 91% and the Vd [23] was 2 L/kg. For the same molecule, the clearance [24] was 7.7 mL/min/kg, the C0 [25] was 2610 nM and the AUC(0-t) at 24 h [26] was 4.82 µM·h. For the same molecule, the Cmax [27] was 381 nM, the AUC(0-t) at 24 h [28] was 2.7 µM·h and the bioavailability [29] was 56%. It also gave a Vd [30] of 0.42 L/kg, a clearance [31] of 0.84 mL/min/kg and a C0 [32] of 12.8 µM. The AUC(0-t) at 24 h [33] was 43.8 µM·h, the Cmax [34] was 2550 nM and the AUC(0-t) at 24 h [35] was 24.2 µM·h. The bioavailability [36] was 55%, the Activity [37] was “Non-Toxic” and the Activity [38] was “Non-Toxic”. The Activity [39] was “Non-Toxic” and the “inhibition (INH)” value [40] was 94%.

For `CC/C(=C(/c1ccc(/C=C/C(=O)O)cc1)c1cc2ccccc2[nH]1)c1ccc(F)cc1Cl`, the IC50 [8] was 1.6 nM, the EC50 [2] was 39 nM and the IC50 (MCF7 [3]) was 21 nM.

For `CC/C(=C(/c1ccc(/C=C/C(=O)O)cc1)c1[nH]c2ccccc2c1C#N)c1ccc(F)cc1Cl`, the IC50 [8] was 0.23 nM, the EC50 [2] was 2.6 nM and the IC50 (MCF7 [3]) was 4.85 nM. The Vd [9] was 4.28 L/kg, the clearance [41] was 104 mL/min/kg and the Cmax [10] was 35 nM. It also gave an AUC(0-t) at 24 h [11] of 0.049 µM·h and a bioavailability [12] of 6.21%.

Molecule `CC/C(=C(/c1ccc(/C=C/C(=O)O)cc1)c1[nH]c2ccccc2c1Cl)c1ccccc1C(F)(F)F` has an IC50 [8] of 0.82 nM, an EC50 [2] of 9.95 nM and an IC50 (MCF7 [3]) of 13 nM.

In the case of `CC/C(=C(/c1ccc(/C=C/C(=O)O)cc1)c1[nH]c2ccccc2c1Cl)c1ccc(Cl)cc1C#N`, the Activity [6] is reported as “Non-Toxic”, the IC50 [8] is reported as 0.23 nM and the EC50 [2] is reported as 0.735 nM. The IC50 (MCF7 [3]) was 0.97 nM, the Vd [9] was 4.48 L/kg and the clearance [41] was 29.7 mL/min/kg. The Cmax [10] was 246 nM, the AUC(0-t) at 24 h [11] was 0.883 µM·h and the bioavailability [12] was 33.7%.

Work on `CC/C(=C(/c1ccc(/C=C/C(=O)O)cc1)c1[nH]c2ccccc2c1Cl)c1cc(Cl)sc1Cl` yielded an IC50 [8] of 1.79 nM, an EC50 [2] of 5.13 nM and an IC50 (MCF7 [3]) of 20 nM.

`CC/C(=C(/c1ccc(/C=C/C(=O)O)cc1)c1[nH]c2ccccc2c1Br)c1ccc(F)cc1Cl` showed an IC50 [8] of 0.66 nM, an EC50 [2] of 2.44 nM and an IC50 (MCF7 [3]) of 8.53 nM.

`CC/C(=C(/c1ccc(/C=C/C(=O)O)cc1)c1[nH]c2ccccc2c1Cl)c1ccsc1C#N` gave an IC50 [8] of 0.18 nM, an EC50 [2] of 2.25 nM and an IC50 (MCF7 [3]) of 7.56 nM.

In the case of `CC/C(=C(/c1ccc(/C=C/C(=O)O)cc1)c1ccc2[nH]ncc2c1)c1ccc(F)cc1Cl` [BRILANESTRANT], the “inhibition (INH)” value [40] is reported as 65%.
